Experimental findings from the supplement of paper PMC12137928 are described below.

The subject of this assay is HCT116. Particulars: 72 h. A digest of the protocol:
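In 1536-well plates, 250 HCT116 cells per well were seeded and left for 5 h to attach. Luminescence from CellTiter-Glo was set against vehicle (0%) and positive control (-100%), and pattern correction was applied. IC50 and maximal efficacy come from four-parameter Hill fitting.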

Counter-ions that a name gives are not always drawn. Some results are limits rather than exact numbers.

Consider `CCOC(=O)c1ccc(O)cc1` [Ethylparaben], for which the IC50 cell viability reads like this: (ICRF193 0 nM) above 45.8 µM; (ICRF193 200 nM) above 45.8 µM.

On to `Cc1ncc(CO)c(CO)c1O` [Pyridoxine], for which the IC50 cell viability reads like this: (ICRF193 0 nM) above 45.8 µM; (ICRF193 200 nM) above 45.8 µM.

Take `OC[C@H]1OC(O)[C@H](O)[C@@H](O)[C@@H]1O` (stereo partly drawn) [Dextrose]: the IC50 cell viability is above 45.8 µM (ICRF193 0 nM) and above 45.8 µM (ICRF193 200 nM).

The compound `CC(=O)O[C@H]1C[C@@H]2CC[C@@H]3[C@H](CC[C@@]4(C)[C@H]3C[C@H](N3CC[N+](C)(C)CC3)[C@@H]4OC(C)=O)[C@@]2(C)C[C@@H]1N1CC[N+](C)(C)CC1` [Pipecuronium bromide] came in with an IC50 cell viability (ICRF193 0 nM) above 45.8 µM and an IC50 cell viability (ICRF193 200 nM) above 45.8 µM.

In turn, `Cn1ccnc1S` [Methimazole] came in with an IC50 cell viability (ICRF193 0 nM) above 45.8 µM and an IC50 cell viability (ICRF193 200 nM) above 45.8 µM.

As for `CC(C)[C@H](N)C(=O)OCCOCn1cnc2c(=O)nc(N)[nH]c21` [Valaciclovir], the IC50 cell viability is, setting by setting: (ICRF193 0 nM) above 45.8 µM; (ICRF193 200 nM) above 45.8 µM.

Regarding `CN(C)CC[C@@H](c1ccc(Cl)cc1)c1ccccn1` [Dexchlorpheniramine hydrochloride], the IC50 cell viability was above 45.8 µM (ICRF193 0 nM) and above 45.8 µM (ICRF193 200 nM).

As to `NS(=O)(=O)c1ccc(Cl)c(S(N)(=O)=O)c1` [Clofenamide], the IC50 cell viability is, setting by setting: (ICRF193 0 nM) above 45.8 µM; (ICRF193 200 nM) above 45.8 µM.

For the compound `COc1ccc2cc1Oc1cc3c(cc1OC)CC[N+](C)(C)[C@H]3Cc1ccc(cc1)Oc1c(OC)c(OC)cc3c1[C@@H](C2)[N+](C)(C)CC3` [Metocurine iodide], the IC50 cell viability runs as follows: (ICRF193 0 nM) above 45.8 µM; (ICRF193 200 nM) above 45.8 µM.

`CCCC(=O)O[C@]1(C(=O)COC(=O)CC)CC[C@H]2[C@@H]3CCC4=CC(=O)CC[C@]4(C)[C@H]3[C@@H](O)C[C@@]21C` [Hydrocortisone buteprate]: the IC50 cell viability runs as follows: (ICRF193 0 nM) above 45.8 µM; (ICRF193 200 nM) above 45.8 µM.

`OCc1ccc(Cl)cc1Cl` [2,4-Dichlorobenzyl alcohol] registered an IC50 cell viability (ICRF193 0 nM) above 45.8 µM and an IC50 cell viability (ICRF193 200 nM) above 45.8 µM.

With `CC(COc1ccccc1)N(CCCl)Cc1ccccc1` (stereo not drawn) [Phenoxybenzamine hydrochloride], the IC50 cell viability reads like this: (ICRF193 0 nM) above 45.8 µM; (ICRF193 200 nM) above 45.8 µM.

In the case of `O=C1Cc2cc(CCN3CCN(c4nsc5ccccc45)CC3)c(Cl)cc2N1` [Ziprasidone], the IC50 cell viability runs as follows: (ICRF193 0 nM) above 45.8 µM; (ICRF193 200 nM) above 45.8 µM.

Regarding `COc1cc2c(c(OC)c1OC)-c1c(cc3c(c1OC)OCO3)C[C@H](C)[C@@](C)(O)C2` [Schisandrol B], the IC50 cell viability was above 45.8 µM (ICRF193 0 nM) and above 45.8 µM (ICRF193 200 nM).

For `O=CCCCC=O` [Glutaraldehyde], the IC50 cell viability by setting is: (ICRF193 0 nM) above 45.8 µM; (ICRF193 200 nM) above 45.8 µM.

Take `COc1cc2c3cc1Oc1cc(ccc1O)C[C@@H]1c4c(cc(OC)c(O)c4Oc4ccc(cc4)C[C@@H]3N(C)CC2)CC[N+]1(C)C` [(+)-Tubocurarine chloride hydrochloride]: the IC50 cell viability reads like this: (ICRF193 0 nM) above 45.8 µM; (ICRF193 200 nM) above 45.8 µM.

For the compound `CC(=O)N(CC(O)CN(C(C)=O)c1c(I)c(C(=O)NCC(O)CO)c(I)c(C(=O)NCC(O)CO)c1I)c1c(I)c(C(=O)NCC(O)CO)c(I)c(C(=O)NCC(O)CO)c1I` (stereo not drawn) [Iodixanol], the IC50 cell viability (ICRF193 0 nM) was above 45.8 µM and the IC50 cell viability (ICRF193 200 nM) was above 45.8 µM.

As to `Cc1onc(-c2c(Cl)cccc2Cl)c1C(=O)N[C@@H]1C(=O)N2[C@@H]1SC(C)(C)[C@@H]2C(=O)O` [Dicloxacillin sodium salt monohydrate], the IC50 cell viability is above 45.8 µM (ICRF193 0 nM) and above 45.8 µM (ICRF193 200 nM).

Regarding `CCC1(CC)C(=O)NC(=O)N(C)C1=O` [Metharbital], the IC50 cell viability reads like this: (ICRF193 0 nM) above 45.8 µM; (ICRF193 200 nM) above 45.8 µM.

On to `CCCCCCCCCCCCCCCCCCCCCC(=O)Nc1ccn([C@@H]2O[C@H](CO)[C@@H](O)[C@@H]2O)c(=O)n1` [Enocitabine], for which the IC50 cell viability was above 45.8 µM (ICRF193 0 nM) and above 45.8 µM (ICRF193 200 nM).

With `C#C[C@]1(O)CC[C@H]2[C@@H]3CCC4=CC(=NO)CC[C@@H]4[C@H]3CC[C@@]21CC` [Norgestimate metabolite Norelgestromin], the IC50 cell viability is, setting by setting: (ICRF193 0 nM) above 45.8 µM; (ICRF193 200 nM) above 45.8 µM.

With `CC(=O)Oc1c(C)cc(OCC(O)CNC(C)C)c(C)c1C` (stereo not drawn) [Metipranolol], the IC50 cell viability (ICRF193 0 nM) is above 45.8 µM and the IC50 cell viability (ICRF193 200 nM) is above 45.8 µM.

`CCOC(=O)CC(SP(=S)(OC)OC)C(=O)OCC` (stereo not drawn) [Malathion]: the IC50 cell viability is, setting by setting: (ICRF193 0 nM) above 45.8 µM; (ICRF193 200 nM) above 45.8 µM.

Regarding `COc1ccc(-c2c(Cl)ncn2-c2ccc(S(N)(=O)=O)cc2)cc1F` [Cimicoxib], the IC50 cell viability is, setting by setting: (ICRF193 0 nM) above 45.8 µM; (ICRF193 200 nM) above 45.8 µM.

For the compound `O=C1CC2(CCCC2)CC(=O)N1CCCCN1CCN(c2ncccn2)CC1` [Buspirone], the IC50 cell viability (ICRF193 0 nM) was above 45.8 µM and the IC50 cell viability (ICRF193 200 nM) was above 45.8 µM.

`FC(F)(F)C(F)(F)C(F)(F)C(F)(F)C(F)(F)C(F)(F)C(F)(F)C(F)(F)Br` [1-Bromoheptadecafluorooctane]: the IC50 cell viability runs as follows: (ICRF193 0 nM) above 45.8 µM; (ICRF193 200 nM) above 45.8 µM.

Consider `CCC(=O)O[C@]1(C(=O)CCl)[C@@H](C)C[C@H]2[C@@H]3C[C@H](F)C4=CC(=O)C=C[C@]4(C)[C@@]3(F)[C@@H](O)C[C@@]21C` [Halobetasol Propionate], for which the IC50 cell viability is above 45.8 µM (ICRF193 0 nM) and above 45.8 µM (ICRF193 200 nM).

`N[C@@H]1CONC1=O` [D-Cycloserine]: the IC50 cell viability by setting is: (ICRF193 0 nM) above 45.8 µM; (ICRF193 200 nM) above 45.8 µM.

Compound `CC(=O)O[C@@H]1C[C@H]2[C@@H]3CCc4cc(OC(=O)c5ccccc5)ccc4[C@H]3CC[C@]2(C)[C@H]1OC(C)=O` [Estriol benzoate diacetate] showed an IC50 cell viability (ICRF193 0 nM) above 45.8 µM and an IC50 cell viability (ICRF193 200 nM) above 45.8 µM.

As for `COc1ccc(/C=C/C(=O)O)cc1` [4-Methoxycinnamic acid], the IC50 cell viability is above 45.8 µM (ICRF193 0 nM) and above 45.8 µM (ICRF193 200 nM).

Consider `CCCCCCCCCC(=O)N[C@@H](Cc1c[nH]c2ccccc12)C(=O)N[C@H](CC(N)=O)C(=O)N[C@@H](CC(=O)O)C(=O)N[C@@H]1C(=O)NCC(=O)N[C@@H](CCCN)C(=O)N[C@@H](CC(=O)O)C(=O)N[C@H](C)C(=O)N[C@@H](CC(=O)O)C(=O)NCC(=O)N[C@H](CO)C(=O)N[C@@H]([C@H](C)CC(=O)O)C(=O)N[C@@H](CC(=O)c2ccccc2N)C(=O)O[C@@H]1C` [Daptomycin], for which the IC50 cell viability was above 45.8 µM (ICRF193 0 nM) and above 45.8 µM (ICRF193 200 nM).

As to `NC[C@H]1O[C@H](O[C@H]2[C@H](O)[C@@H](O[C@H]3O[C@H](CO)[C@@H](O)[C@H](N)[C@H]3O)[C@H](N)C[C@@H]2N)[C@H](N)C[C@@H]1O` [Tobramycin], the IC50 cell viability is above 45.8 µM (ICRF193 0 nM) and above 45.8 µM (ICRF193 200 nM).

Compound `CNC(=O)c1c(I)c(C(=O)NCC(=O)Nc2c(I)c(C(=O)O)c(I)c(C(=O)NCCO)c2I)c(I)c(N(C)C(C)=O)c1I` [Ioxaglic Acid] showed an IC50 cell viability (ICRF193 0 nM) above 45.8 µM and an IC50 cell viability (ICRF193 200 nM) above 45.8 µM.

With `CCCCC(=O)O[C@]1(C(=O)CO)[C@@H](C)C[C@H]2[C@@H]3CCC4=CC(=O)C=C[C@]4(C)[C@@]3(F)[C@@H](O)C[C@@]21C` [Betamethasone valerate], the IC50 cell viability is, setting by setting: (ICRF193 0 nM) above 45.8 µM; (ICRF193 200 nM) above 45.8 µM.

On to `Cc1ncc(C[n+]2csc(CCO)c2C)c(N)n1` [Thiamine hydrochloride], for which the IC50 cell viability is above 45.8 µM (ICRF193 0 nM) and above 45.8 µM (ICRF193 200 nM).

Take `CCCCN1CCCC[C@H]1C(=O)Nc1c(C)cccc1C` [Levobupivacaine hydrochloride]: the IC50 cell viability (ICRF193 0 nM) is above 45.8 µM and the IC50 cell viability (ICRF193 200 nM) is above 45.8 µM.

On to `CCCCNc1cc(C(=O)O)cc(S(N)(=O)=O)c1Oc1ccccc1` [Bumetanide], for which the IC50 cell viability was above 45.8 µM (ICRF193 0 nM) and above 45.8 µM (ICRF193 200 nM).

With `CC[C@@H](CO)NC(=O)[C@@H]1C=C2c3cccc4[nH]cc(c34)C[C@H]2N(C)C1` [Methergine], the IC50 cell viability reads like this: (ICRF193 0 nM) above 45.8 µM; (ICRF193 200 nM) above 45.8 µM.

With `C[C@@H]1C[C@H]2[C@@H]3CCC4=CC(=O)C=C[C@]4(C)[C@@]3(F)[C@@H](O)C[C@]2(C)[C@H]1C(=O)CO` [Desoximetasone], the IC50 cell viability (ICRF193 0 nM) was above 45.8 µM and the IC50 cell viability (ICRF193 200 nM) is above 45.8 µM.

On to `CCN(CC)CCCC(C)Nc1ccnc2cc(Cl)ccc12` (stereo not drawn) [Chloroquine], for which the IC50 cell viability is, setting by setting: (ICRF193 0 nM) above 45.8 µM; (ICRF193 200 nM) above 45.8 µM.

`CC1Cc2ccccc2N1NC(=O)c1ccc(Cl)c(S(N)(=O)=O)c1` (stereo not drawn) [Indapamide] came in with an IC50 cell viability (ICRF193 0 nM) above 45.8 µM and an IC50 cell viability (ICRF193 200 nM) above 45.8 µM.

As for `CCN(CC)CCOC(=O)C(Cc1cccc2ccccc12)CC1CCCO1` (stereo not drawn) [Nafronyl oxalate], the IC50 cell viability is above 45.8 µM (ICRF193 0 nM) and above 45.8 µM (ICRF193 200 nM).

Consider `Cn1c(=O)c2[nH]cnc2n(C)c1=O` [Theophyllamine], for which the IC50 cell viability by setting is: (ICRF193 0 nM) above 45.8 µM; (ICRF193 200 nM) above 45.8 µM.

In turn, `COc1c(N2C[C@@H]3CCCN[C@@H]3C2)c(F)cc2c(=O)c(C(=O)O)cn(C3CC3)c12` [Moxifloxacin (Hydrochloride)] came in with an IC50 cell viability (ICRF193 0 nM) above 45.8 µM and an IC50 cell viability (ICRF193 200 nM) above 45.8 µM.

On to `Cc1ncc(CNC(=O)N(CCCl)N=O)c(N)n1` [Nimustine], for which the IC50 cell viability by setting is: (ICRF193 0 nM) above 45.8 µM; (ICRF193 200 nM) above 45.8 µM.

In the case of `Nc1ccc(S(=O)(=O)Nc2ccccn2)cc1` [Sulfapyridine], the IC50 cell viability is above 45.8 µM (ICRF193 0 nM) and above 45.8 µM (ICRF193 200 nM).

Regarding `NC[C@H](O)c1ccc(O)c(O)c1` [Noradrenaline bitartrate monohydrate], the IC50 cell viability is above 45.8 µM (ICRF193 0 nM) and above 45.8 µM (ICRF193 200 nM).

Take `CC(C(=O)O)c1ccc2c(c1)[nH]c1ccc(Cl)cc12` (stereo not drawn) [Carprofen]: the IC50 cell viability by setting is: (ICRF193 0 nM) above 45.8 µM; (ICRF193 200 nM) above 45.8 µM.

Turning to `C[C@H](/C=C/[C@H](C)C(C)(C)O)[C@H]1CC[C@H]2/C(=C/C=C3C[C@@H](O)C[C@H](O)C3)CCC[C@]12C` [Paricalcitol-D6], the IC50 cell viability is above 45.8 µM (ICRF193 0 nM) and above 45.8 µM (ICRF193 200 nM).
